Columns and labels:
[1] = test system: bacteria (Table 6 pool) and fungi; assay: Challenge test, overall result (full bacteria pool and fungi); assay type: cell-based
Procedure: (§1) The preservative activity in representative rinse-off and leave-on formulations was evaluated using a modification of the Personal Care Products Council (PCPC—formerly the Cosmetic, Toiletry and Fragrance Association) protocol (Machtiger, et al. 2001. Determination of the Efficacy of Preservation of Non-Eye Area Water Miscible Cosmetic and Toiletry Formulations: Collaborative Study. J of AOAC International. 84:1, 101-109).
(§2) This evaluation was conducted using a four week, two or three-cycle (i.e., two-cycle for personal care and three-cycle for home care applications) microbial preservative efficacy test (i.e., challenge test) at 25° C. to determine the preservative efficacy of each treatment. Phenoxyethanol, benzyl alcohol and pelargonic acid were tested alone and in various combinations. The pelargonic acid used in the testing was purchased from Sigma-Aldrich. Combinations of phenoxyethanol or benzyl alcohol with benchmark multifunctional booster compounds were also tested for comparison. The preservative and booster ingredients were dosed and mixed thoroughly at room temperature into various formulations, specifically different personal care formulations including a lotion (leave-on, Table 1), a micellar water (rinse-off, Table 2), and a body wash formulation (rinse-off, Table 3) and different home care formulations including a manual dishwashing formulation (Table 4) and a liquid laundry detergent formulation (Table 5). […] Carbomers are a commonly used synthetic rheological modifier in personal care products. The formulation below was made by heating the aqueous (A) and oil (B) phases separately to 75-80° C. The oil phase was then poured into the aqueous phase and mixed by a homogenizer at approximately 45° C. The formed oil-in-water emulsion was cooled to room temperature. Triethanolamine and/or diluted sodium hydroxide was used to adjust the final pH to 6.3 or 6.5 (as indicated in the examples below).
(§3) After dosing, the samples were divided into two separate five gram aliquots. One aliquot was inoculated with 50 μl of a diluted bacterial pool, and the second aliquot was inoculated with 50 μl of a diluted fungal pool as described below. Unpreserved product samples were included as a growth control.
(§4) For personal care products, a mixed bacterial inoculum was prepared using 24-hour cultures of the test bacteria (Table 6) grown in trypticase soy broth (TSB). For home care products, a mixed bacterial inoculum was prepared using 24-hour cultures of the test bacteria either from Table 6 (full pool) or Table 7 (simplified pool) grown in trypticase soy broth (TSB). Details are disclosed in the home care examples below. Equal volumes of the bacterial test strains were combined and diluted one to ten in phosphate buffer to obtain an inoculum of approximately 5×10^7 to 5×10^8 colony forming units per ml (cfu/ml). The test samples were inoculated with 1% of the mixed bacterial inoculum. For both personal care and home care products, a mixed fungal inoculum was prepared using cell suspensions of the yeast Candida albicans ATCC #10231 and the mold Aspergillus brasiliensis ATCC #16404 in phosphate buffer. Equal volumes of the fungal test strains were combined and diluted one to ten with phosphate buffer to obtain an inoculum of approximately 5×10^6 to 5×10^7 cfu/ml. The test samples were inoculated with 1% of the mixed fungal inoculum.
(§5) For personal care products, the samples were subjected to two microbial challenges at time zero and inoculated a second time after seven days. For home care products, the samples were subjected to three microbial challenges at time zero and inoculated a second and third time after seven and fourteen days, respectively. The number of microorganisms added to each sample was determined by a standard Most Probable Number (MPN) determination in Trypticase Soy Broth (TSB) for bacteria and Potato Dextrose Broth (PDB) for fungi. Samples were incubated at 25° C. for the test duration of four weeks.

[2] = test system: mixed fungal inoculum: Candida albicans ATCC #10231 and Aspergillus brasiliensis ATCC #16404; assay: Challenge test (preservative efficacy), mixed fungal inoculum; assay type: cell-based
Procedure: as §1, §2, §3, §4, §5

[3] = test system: mixed bacterial inoculum (Table 6); assay: Challenge test (preservative efficacy), mixed bacterial inoculum, full pool (Table 6); assay type: cell-based
Procedure: as §1, §2, §3, §4, §5

[4] = test system: mixed bacterial inoculum for home care (Table 7); assay: Challenge test (preservative efficacy), mixed bacterial inoculum, simplified pool (Table 7); assay type: cell-based, Pseudomonas aeruginosa, Staphylococcus aureus; details: dosed 0.02 wt %
Procedure: as §1, §2, §3, §4, §5

[5] = test system: bacteria (Table 7 pool) and fungi; assay: Challenge test, overall result (simplified bacteria pool and fungi); assay type: cell-based; details: dosed 0.02 wt %
Procedure: as §1, §2, §3, §4, §5

[6] = micellar water, pH 6.0, Example 1B, dosed 0.5 wt %
[7] = body wash, pH 6.5, Example 1E, dosed 0.5 wt %
[8] = lotion with carbomer, pH 6.3, Example 1A, dosed 0.4 wt %
[9] = micellar water, pH 6.0, Example 1B, dosed 0.3 wt %
[10] = micellar water, pH 6.0, Example 1C, dosed 0.3 wt %
[11] = liquid laundry detergent, pH 7.5, Example 1H, dosed 0.02 wt %
[12] = lotion with carbomer, pH 6.5, Example 1I, dosed 0.016 wt %

`CCCCC(O)CO` (centres unmarked) [1,2 hexanediol] was tested. Which “Overall Result” value [1, 6] did it give?
The value was “Fail”.

What about the “Fungi growth rating Result” value [2, 6] of the same compound?
Its value is “Fail (growth rating score caused by fungi of more than 2 at days 21-28 of the testing period)”.

And the “Bacteria growth rating Result” value ([3]; micellar water, pH 6.0, bacteria inoculation ~10^7 cfu/ml, Example 1B, dosed 0.5 wt %)?
The value was “Pass (growth rating score caused by bacteria of 1 or less at days 21-28 of the testing period)”.

How did the “Overall Result” value [1, 7] turn out when `OCc1ccccc1` [Benzyl Alcohol (BA), benzyl alcohol] was run?
Its value is “Fail”.

And the “Overall Result” value [1, 8]?
Its value is “Fail”.

And the “Overall Result” value [1, 9]?
The value was “Fail”.

What about the “Overall Result” value [1, 10] of the same compound?
Its value is “Fail”.

What about the “Fungi growth rating Result” value [2, 7] of the same compound?
Its value is “Pass (growth rating score caused by fungi of 2 or less at days 21-28 of the testing period)”.

What about the “Fungi growth rating Result” value [2, 8] of the same compound?
The value was “Fail (growth rating score caused by fungi of more than 2 at days 21-28 of the testing period)”.

What about the “Fungi growth rating Result” value [2, 9] of the same compound?
Its value is “Fail (growth rating score caused by fungi of more than 2 at days 21-28 of the testing period)”.

And the “Fungi growth rating Result” value [2, 10]?
The value was “Fail (growth rating score caused by fungi of more than 2 at days 21-28 of the testing period)”.

What about the “Bacteria growth rating Result” value [3, 7] of the same compound?
Its value is “Fail (growth rating score caused by bacteria of 2 or more at days 21-28 of the testing period)”.

What about the “Bacteria growth rating Result” value [3, 8] of the same compound?
The value was “Fail (growth rating score caused by bacteria of 2 or more at days 21-28 of the testing period)”.

And the “Bacteria growth rating Result” value ([3]; lotion with carbomer, pH 6.3, Example 1D, dosed 0.4 wt %)?
The value was “Fail (growth rating score caused by bacteria of 2 or more at days 21-28 of the testing period)”.

And the “Bacteria growth rating Result” value ([3]; lotion with carbomer, pH 6.3, Example 1D, dosed 0.8 wt %)?
The value was “Fail (growth rating score caused by bacteria of 2 or more at days 21-28 of the testing period)”.

What about the “Bacteria growth rating Result” value ([3]; micellar water, pH 6.0, bacteria inoculation ~10^7 cfu/ml, Example 1B, dosed 0.3 wt %) of the same compound?
Its value is “Pass (growth rating score caused by bacteria of 1 or less at days 21-28 of the testing period)”.

What about the “Bacteria growth rating Result” value ([3]; micellar water, pH 6.0, bacteria inoculation ~10^8 cfu/ml, Example 1C, dosed 0.3 wt %) of the same compound?
Its value is “Fail (growth rating score caused by bacteria of 2 or more at days 21-28 of the testing period)”.

How did the “Overall Result” value [1, 11] turn out when `CCCCCCCC(=O)NO` [Caprylhydroxamic acid (CHA), Caprylhydroxamic acid] was run?
Its value is “Fail”.

What about the “Overall Result” value [1, 12] of the same compound?
The value was “Fail”.

And the “Bacteria growth rating Result” value ([4]; liquid laundry detergent, pH 7.5, simplified bacteria pool, Example 1G)?
Its value is “Fail (growth rating score caused by bacteria of 2 or more at days 21-28 of the testing period)”.

What about the “Bacteria growth rating Result” value ([4]; manual dishwashing formulation, pH 5.5, simplified bacteria pool, Example 1F) of the same compound?
Its value is “Fail (growth rating score caused by bacteria of 2 or more at days 21-28 of the testing period)”.

And the “Fungi growth rating Result” value ([2]; liquid laundry detergent, pH 7.5, Example 1G, dosed 0.02 wt %)?
The value was “Fail (growth rating score caused by fungi of more than 2 at days 21-28 of the testing period)”.

What about the “Fungi growth rating Result” value [2, 11] of the same compound?
The value was “Fail (growth rating score caused by fungi of more than 2 at days 21-28 of the testing period)”.

What about the “Fungi growth rating Result” value [2, 12] of the same compound?
The value was “Fail (growth rating score caused by fungi of more than 2 at days 21-28 of the testing period)”.

What about the “Fungi growth rating Result” value ([2]; manual dishwashing formulation, pH 5.5, Example 1F, dosed 0.02 wt %) of the same compound?
Its value is “Fail (growth rating score caused by fungi of more than 2 at days 21-28 of the testing period)”.

What about the “Overall Result” value ([5]; liquid laundry detergent, pH 7.5, Example 1G) of the same compound?
Its value is “Fail”.

What about the “Overall Result” value ([5]; manual dishwashing formulation, pH 5.5, Example 1F) of the same compound?
Its value is “Fail”.

And the “Bacteria growth rating Result” value ([3]; liquid laundry detergent, pH 7.5, full bacteria pool, Example 1H, dosed 0.02 wt %)?
The value was “Fail (growth rating score caused by bacteria of 2 or more at days 21-28 of the testing period)”.

And the “Bacteria growth rating Result” value [3, 12]?
Its value is “Fail (growth rating score caused by bacteria of 2 or more at days 21-28 of the testing period)”.

Reference: US20260191192A1, “ANTIMICROBIAL COMPOSITIONS COMPRISING PELARGONIC ACID” (LANXESS Corporation, priority 2023, published 2026)
